Laboratory results reported in article PMC7978038 (Molecular pharmaceutics, 2019).
Like-named read-outs stand apart in the source and are kept apart here.

Experiments:
[1] = oral 2-PMPA; cited from earlier work
[2] = mice, 10 mg/kg 2-PMPA equivalent dose, mean ± SEM, n = 3
in vivo [3] = settings: male, beagle, dog, po, 1 mg/kg
in vivo [4] = settings: male, CD-1, mouse, iv, 10 mg/kg
[5] = test system: 100 different transporters, enzymes, and receptors, including several glutamate targets; settings: selectivity; cited from earlier work
[6] = mice, cited from earlier work
[7] = mouse, microsomes
[8] = human, microsomes
[9] = dog, microsomes

| Intestinal microsomal stability, intact prodrug level at the end of 1 h incubation [7] | Intestinal microsomal stability, intact prodrug level at the end of 1 h incubation [8] | Intestinal microsomal stability, intact prodrug level at the end of 1 h incubation [9] | SMILES | oral bioavailability (F) [1] | 2-PMPA plasma concentration at 30 min post oral administration [2] | AUC(0-t) (in vivo [3]) | Cmax (in vivo [3]) | Tmax (in vivo [3]) | 2-PMPA brain AUC0−t (mice, IV, 10 mg/kg) | 2-PMPA brain Cmax (mice, IV, 10 mg/kg) | AUC(0-t) (in vivo [4]) | Cmax (in vivo [4]) | Kp (in vivo [4]) | activity at 100 different transporters, enzymes, and receptors [5] | 2-PMPA plasma AUC0−t ([6]; oral 2-PMPA, ref our previously published manuscript) | oral bioavailability ([6]; oral) | metabolites (including 2 and 3) detected in plasma (mouse, in vivo, po) | fold enhancement in 2-PMPA systemic availability versus orally administered 2-PMPA ([6]; oral) |
| --- | --- | --- | --- | --- | --- | --- | --- | --- | --- | --- | --- | --- | --- | --- | --- | --- | --- | --- |
| – | – | – | O=C(O)CCC(CP(=O)(O)O)C(=O)O (stereo not shown) [Prodrug 2-PMPA, 2-(Phosphonomethyl)-pentanedioic acid] | < 1% | 0.25 ± 0.02 nmol/mL | 1.44 µM·h | 0.4 µM | 2 h | 1.6 ± 0.2 nmol·h/g | 1.2 ± 0.1 nmol/g | 104 ± 19 µM·h | 109 ± 9.5 µM | 0.015 | no activity | 0.65 ± 0.13 µM·h | < 1% | – | – |
| did not show any intact prodrug level | did not show any intact prodrug level | did not show any intact prodrug level | Cc1oc(=O)oc1COC(=O)CCC(CP(=O)(OCc1oc(=O)oc1C)OCc1oc(=O)oc1C)C(=O)OCc1oc(=O)oc1C (stereo not shown) [Prodrug 4] | – | – | – | – | – | – | – | – | – | – | – | – | – | No metabolites, including 2 and 3, were detected | – |
| – | – | – | CC(C)OC(=O)OCOC(=O)C(CCC(=O)O)CP(=O)(OCOC(=O)OC(C)C)OCOC(=O)OC(C)C (stereo not shown) [Prodrug 21b] | – | – | – | – | – | – | – | – | – | – | – | – | 11.5% | – | 20 fold |
